US8618095B2 (Rigel Pharmaceuticals, Inc., priority 2010, dated 2013)

The compounds below were run on Human mast cells (CHMC) (assay: LD Tryptase release assay in CHMC (mast cell activation induced by FcγR cross-linking)). Conditions: Homo sapiens, Mast cell, anti-IgG stimulation, activity of tryptase released upon degranulation.
Format: cell-based
Protocol: Compounds were assayed for inhibition of mast cell activation induced by FcγR cross-linking by measuring the activity of tryptase released upon degranulation as follows:
Human mast cells were cultured and differentiated from […] progenitor cell as described in U.S. Patent Publication No. 2005-234049, incorporated herein by reference. For example, 65 μL of various concentrations of the compound to be assayed were prepared in MT (137 mM NaCl, 2.7 mM KCl, 1.8 mM CaCl2, 1.0 mM MgCl2, 5.6 mM Glucose, 20 mM Hepes (pH 7.4), 0.1% Bovine Serum Albumin, (Sigma A4503)) containing 2% MeOH and 1% DMSO, or control buffer were added to duplicate 96-well V-bottom plates. Pelleted and re-suspended (in warm MT) CHMC cells (65 μL) were added to each 96-well plate, mixed and incubated for 1 hour at 37° C. 25 μl of 6× anti-IgG Rabbit anti-human IgG, Affinity purified (Bethyl Laboratories Cat No. A80-105A3) final concentration 1 μg/mL, was added to the test wells. MT (25 μL) was added to control wells. After a 60-minute incubation at 37° C., cells and cell debris were pelleted by centrifugation at 1000 rpm for 10 min and tryptase and leukotriene C4 levels were measured.
To measure tryptase levels, 25 μL of supernatant from each well was transferred to a fresh 96-well black bottom plate, to which 100 μL of fresh tryptase substrate solution [(Z-Ala-Lys-Arg-AMC2TFA; Enzyme Systems Products, #AMC-246)] 1:2000 in tryptase assay buffer [0.1 M Hepes (pH 7.5), 10% w/v Glycerol, 10 μM Heparin (Sigma H-4898) 0.01% NaN3] was added. After 30 minute incubation at room temperature, the optical density of the plates is measured at 355 nm/460 nm on a spectrophotometric plate reader. Table 1 provides the IC50 values.
Compounds of the disclosure were assayed for their ability to inhibit mast cell activation induced by FcγR cross-linking by measuring the activity of tryptase released upon degranulation. The IC50 values for the LD Tryptase assay are presented in Table 2, in which “0” is >100 μM; “A” is 1-100 μM; “B” is 0.5-1 μM; “C” is 0.1-0.5 μM; and “D” is less than 0.1 μM: […]

Row | Compound | IC50 [nM]
1 | CCCN1C(=O)COc2ccc(Nc3nc(Nc4ccc(N5CCOCC5)c(C(F)(F)F)c4)ncc3F)nc21 [Compound 148, N4-(3,4-dihydro-3-oxo-4-propyl-2H-pyrido[3,2-b][1,4]oxazin-6-yl)-5-fluoro-N2-[4-morpholino-3-(trifluoromethyl)phenyl]-2,4-pyrimidinediamine] | < 100
2 | CC1(C)Oc2ccc(Nc3nc(Nc4ccc(N5CCC(N6CCOCC6)CC5)cc4)ncc3F)nc2NC1=O [Compound 87, N4-(2,2-dimethyl-3,4-dihydro-3-oxo-2H-pyrido[3,2-b][1,4]oxazin-6-yl)-5-fluoro-N2-[4-(4-morpholinopiperidin-1-yl)phenyl]-2,4-pyrimidinediamine] | 100 to 500
3 | CC1(C)Oc2ccc(Nc3nc(Nc4ccc(N5CCO[C@H](CCO)C5)cc4)ncc3F)nc2NC1=O (stereo in doubt) [Compound 126, N4-(2,2-dimethyl-3,4-dihydro-3-oxo-2H-pyrido[3,2-b][1,4]oxazin-6-yl)-5-fluoro-N2-[4-((2-hydroxyethyl)morpholino)phenyl]-2,4-pyrimidinediamine] | 100 to 500
4 | CC1(C)Oc2ccc(Nc3nc(Nc4ccc(N5CCS(=O)(=O)CC5)cc4)ncc3F)nc2NC1=O [Compound 149, N4-(2,2-dimethyl-3,4-dihydro-3-oxo-2H-pyrido[3,2-b][1,4]oxazin-6-yl)-5-fluoro-N2-[4-(1,1-dioxidothiomorpholin-4-yl)phenyl]-2,4-pyrimidinediamine] | < 100
5 | CCOCC1CN(c2ccc(Nc3ncc(F)c(Nc4ccc5c(n4)NC(=O)C(C)(C)O5)n3)cc2)CCO1 (stereo in doubt) [Compound 42, N4-(2,2-dimethyl-3,4-dihydro-3-oxo-2H-pyrido[3,2-b][1,4]oxazin-6-yl)-5-fluoro-N2-[4-(((2S)-2-ethoxymethyl)morpholino)phenyl]-2,4-pyrimidinediamine] | 100 to 500
6 | CC1(C)Oc2ccc(Nc3nc(Nc4ccc(N5CCCCC5)cc4)ncc3F)nc2NC1=O [Compound 78, N4-(2,2-dimethyl-3,4-dihydro-3-oxo-2H-pyrido[3,2-b][1,4]oxazin-6-yl)-5-fluoro-N2-[4-(piperidin-1-yl)phenyl]-2,4-pyrimidinediamine] | 1000 to 100000
7 | CN1CCN(c2ccc(Nc3ncc(F)c(Nc4ccc5c(n4)NC(=O)C(C)(C)O5)n3)cn2)CC1 [Compound 18, N4-(2,2-dimethyl-3,4-dihydro-3-oxo-2H-pyrido[3,2-b][1,4]oxazin-6-yl)-5-fluoro-N2-[6-(4-methylpiperazin-1-yl)pyridin-3-yl]-2,4-pyrimidinediamine] | 500 to 1000
8 | C[C@H]1CN(c2ccc(Nc3ncc(F)c(Nc4ccc5c(n4)NC(=O)C(C)(C)O5)n3)cn2)[C@@H](C)CO1 (racemic) [Compound 105, rac-N4-(2,2-dimethyl-3,4-dihydro-3-oxo-2H-pyrido[3,2-b][1,4]oxazin-6-yl)-5-N2-[6-(2,5-dimethylmorpholino)pyridin-3-yl]-5-fluoro-2,4-pyrimidinediamine] | 100 to 500
9 | CC1(C)Oc2ccc(Nc3nc(Nc4ccc(N5CCOC5=O)cc4)ncc3F)nc2NC1=O [Compound 91, N4-(2,2-dimethyl-3,4-dihydro-3-oxo-2H-pyrido[3,2-b][1,4]oxazin-6-yl)-5-fluoro-N2-[4-(2-oxooxazolidin-3-yl)phenyl]-2,4-pyrimidinediamine] | < 100
10 | CC1(C)Oc2ccc(Nc3nc(Nc4ccc(N5CCC6(CCOC6)CC5)nc4)ncc3F)nc2NC1=O [Compound 144, N4-(2,2-dimethyl-3,4-dihydro-3-oxo-2H-pyrido[3,2-b][1,4]oxazin-6-yl)-5-fluoro-N2-[6-(2-oxa-8-azaspiro[4.5]decan-8-yl)pyridin-3-yl]-2,4-pyrimidinediamine] | 100 to 500
11 | Cc1ccc(Nc2ncc(F)c(Nc3ccc4c(n3)NC(=O)C(C)(C)O4)n2)cn1 [Compound 76, N4-(2,2-dimethyl-3,4-dihydro-3-oxo-2H-pyrido[3,2-b][1,4]oxazin-6-yl)-5-fluoro-N2-[6-methylpyridin-3-yl]-2,4-pyrimidinediamine] | 100 to 500
12 | CC1(C)Oc2ccc(Nc3nc(Nc4ccc(N5CCC6(CCOC6)CC5)cc4)ncc3F)nc2NC1=O [Compound 157, N4-(2,2-dimethyl-3,4-dihydro-3-oxo-2H-pyrido[3,2-b][1,4]oxazin-6-yl)-5-fluoro-N2-[4-(2-oxa-8-azaspiro[4.5]decan-8-yl)phenyl]-2,4-pyrimidinediamine] | 100 to 500
13 | CC(C)[C@H]1COC(=O)N1c1ccc(Nc2ncc(F)c(Nc3ccc4c(n3)NC(=O)C(C)(C)O4)n2)cn1 [Compound 74, N4-(2,2-dimethyl-3,4-dihydro-3-oxo-2H-pyrido[3,2-b][1,4]oxazin-6-yl)-5-fluoro-N2-[6-((4S)-4-isopropyl-2-oxooxazolidin-3-yl)pyridin-3-yl]-2,4-pyrimidinediamine] | 1000 to 100000
14 | C[C@@H]1CN(c2ccc(Nc3ncc(F)c(Nc4ccc5c(n4)NC(=O)C(C)(C)O5)n3)cn2)C[C@H](C)O1 [Compound 96, rac-Cis-N4-(2,2-dimethyl-3,4-dihydro-3-oxo-2H-pyrido[3,2-b][1,4]oxazin-6-yl)-N2-[6-(2,6-dimethylmorpholino)pyridin-3-yl]-5-fluoro-2,4-pyrimidinediamine] | 100 to 500
15 | CCN[C@@H]1CCN(c2ccc(Nc3ncc(F)c(Nc4ccc5c(n4)NC(=O)C(C)(C)O5)n3)cn2)C1 [Compound 68, N4-(2,2-dimethyl-3,4-dihydro-3-oxo-2H-pyrido[3,2-b][1,4]oxazin-6-yl)-5-fluoro-N2-[6-((3R)-3-(ethylamino)pyyriolidin-1-yl)pyridin-3-yl]-2,4-pyrimidinediamine] | 100 to 500
16 | Cc1cc(Nc2ncc(F)c(Nc3ccc4c(n3)NC(=O)C(C)(C)O4)n2)cnc1N1CCOCC1 [Compound 13, N4-(2,2-dimethyl-3,4-dihydro-3-oxo-2H-pyrido[3,2-b][1,4]oxazin-6-yl)-5-fluoro-N2-[5-methyl-6-morpholinopyridin-3-yl]-2,4-pyrimidinediamine] | < 100
17 | O=C1COc2ccc(Nc3nc(Nc4ccc(N5CCOCC5)c(F)c4)ncc3F)nc2N1 [Compound 34, N4-(3,4-dihydro-3-oxo-2H-pyrido[3,2-b][1,4]oxazin-6-yl)-5-fluoro-N2-[3-fluoro-4-morpholinophenyl]-2,4-pyrimidinediamine] | < 100
18 | CC1(C)Oc2ccc(Nc3nc(Nc4ccc(NC5CCOCC5)nc4)ncc3F)nc2NC1=O [Compound 134] | < 100
19 | COC1CCN(c2ccc(Nc3ncc(F)c(Nc4ccc5c(n4)NC(=O)C(C)(C)O5)n3)cc2)CC1 [Compound 152, N4-(2,2-dimethyl-3,4-dihydro-3-oxo-2H-pyrido[3,2-b][1,4]oxazin-6-yl)-5-fluoro-N2-[4-(4-methoxypiperidin-1-yl)phenyl]-2,4-pyrimidinediamine] | < 100
20 | CC1(C)Oc2ccc(Nc3nc(Nc4ccc(N5CCC(N)CC5)cc4)ncc3F)nc2NC1=O [Compound 90, N4-(2,2-dimethyl-3,4-dihydro-3-oxo-2H-pyrido[3,2-b][1,4]oxazin-6-yl)-5-fluoro-N2-[4-(4-aminopiperidin-1-yl)phenyl]-2,4-pyrimidinediamine] | 100 to 500
21 | CC1(C)Oc2ccc(Nc3nc(Nc4ccc(N5CCO[C@@H](CO)C5)cc4)ncc3F)nc2NC1=O [Compound 128, N4-(2,2-dimethyl-3,4-dihydro-3-oxo-2H-pyrido[3,2-b][1,4]oxazin-6-yl)-5-fluoro-N2-[4-((2-hydroxymethyl)morpholino)phenyl]-2,4-pyrimidinediamine] | < 100
22 | CCOCC1CN(c2ccc(Nc3ncc(F)c(Nc4ccc5c(n4)NC(=O)CO5)n3)cc2)CCO1 (stereo in doubt) [Compound 41, N4-(3,4-dihydro-3-oxo-2H-pyrido[3,2-b][1,4]oxazin-6-yl)-5-fluoro-N2-[4-(((2S)-2-ethoxymethyl)morpholino)phenyl]-2,4-pyrimidinediamine] | 100 to 500
23 | Cc1cc(Nc2ncc(F)c(Nc3ccc4c(n3)NC(=O)C(C)(C)O4)n2)ccc1N1CCOCC1 [Compound 23, N4-(2,2-dimethyl-3,4-dihydro-3-oxo-2H-pyrido[3,2-b][1,4]oxazin-6-yl)-5-fluoro-N2-[3-methyl-4-morpholinophenyl]-2,4-pyrimidinediamine] | < 100
24 | CCN(CC)C1CCN(c2ccc(Nc3ncc(F)c(Nc4ccc5c(n4)NC(=O)C(C)(C)O5)n3)cc2)CC1 [Compound 88, N4-(2,2-dimethyl-3,4-dihydro-3-oxo-2H-pyrido[3,2-b][1,4]oxazin-6-yl)-5-fluoro-N2-[4-(4-(diethylamino)piperidin-1-yl)phenyl]-2,4-pyrimidinediamine] | 100 to 500
